The record followed here is patent publication US7250400B2, “Peptides and derivatives thereof showing cell attachment, spreading and detachment activity” (Regen Biotech, Inc., priority 2002, dated 2007).

Residue numbers refer to the chain shown, from its start. Entries after “also recorded” stand apart in the source; their conditions may differ.

Format in all cases: cell-based
Test [1] concerns HCE cells. The experiment in a line: Effect of synthetic peptides on βig-h3-mediated HCE cell adhesion. The settings on record: 100 μM peptide; for cell detachment activity: HCE cell adhesion to βig-h3, FIG. 8a; for inhibition of HCE cell adhesion to βig-h3: preincubation 30 min, dishes coated with 10 μg/ml βig-h3, FIG. 8a. The protocol: (§1) The recombinant βig-h3 fas-1 domain proteins prepared above were assayed for cell attachment activity. First, the recombinant βig-h3 proteins were let to adhere to the bottoms of 96-well microculture plates (Falcon) by incubation at 37° C. for 1 hour and blocked with PBS containing 0.2% BSA. HCE cells were suspended in culture media at a density of 2×10^5 cells/ml. 0.1 ml of the cell suspension was added to each well of the plates coated with the recombinant proteins. Following incubation at 37° C. for 1 hour, unattached cells were removed by washing with PBS. Attached cells were incubated for 1 hour at 37° C. in 50 mM citrate buffer, pH 5.0, containing 3.75 mM p-nitrophenol-N-acetyl 1-β-D-glycosaminide as a hexosaminidase substrate and 0.25% Triton X-100, followed by the addition of 50 mM glycine buffer, pH 10.4, containing 5 mM EDTA to block the enzyme activity. A measurement was made of absorbance at 405 nm in a Multiskan MCC/340 microplate reader.
Effect of the peptides containing conserved sequences of fas-1 domains of βig-h3 on βig-h3-mediated cell adhesion was examined with HCE cells. Cells were preincubated for 30 min in media containing 100 μM of each of the four synthetic peptides or no peptides and transferred to plastic culture dishes coated with 10 μg/ml BSA or 10 μg/ml βig-h3. The attached cells were subjected to quantitative hexosaminidase analysis as in Example 1-2.

Test [2] concerns HCE cells. The experiment in a line: Cell adhesion of HCE cells to surfaces coated with synthetic peptides. The settings on record: plates coated with peptide at 0-120 μM, HCE cells 37° C. 1 hour, FIG. 9a. The protocol: as §1
An experiment was carried out to determine whether each of the synthetic peptides is able to mediate cell adhesion. Well plates were coated with each peptide at concentrations of 0, 20, 40, 60, 80, 100 and 120 μM and then incubated with HCE cells at 37° C. for 1 hour. The attached cells were quantitatively analyzed with hexosaminidase as in Example 1-2.

Test [3] has as its system HCE cells. Put plainly: Effect of synthetic peptides on HCE cell adhesion to various extracellular matrix proteins. The settings on record: 100 μM peptide; for inhibition of cell adhesion to fibronectin: plates coated with fibronectin; for inhibition of cell adhesion to fibronectin / inhibition of cell adhesion to laminin / inhibition of cell adhesion to type I collagen / inhibition of cell adhesion to type II collagen / inhibition of cell adhesion to vitronectin: FIG. 10a; for inhibition of cell adhesion to laminin: plates coated with laminin; for inhibition of cell adhesion to type I collagen: plates coated with type I collagen; for inhibition of cell adhesion to type II collagen: plates coated with type II collagen; for inhibition of cell adhesion to vitronectin: plates coated with vitronectin; for inhibition of cell adhesion to βig-h3: plates coated with βig-h3, FIG. 10a. The protocol:
as §1
To determine whether the inhibitory activity of synthetic peptides EPDIM (SEQ ID NO:3 and NKDIL (SEQ ID NO:2) against cell adhesion is specific to βig-h3, effects of the synthetic peptides on cell adhesion to various matrix proteins were examined. HCE cells were preincubated in media added with 100 μM of the synthetic peptide EPDIM (SEQ ID NO:3) or NKDIL (SEQ ID NO:2) or none of them and then applied to plates coated with various matrix proteins, including βig-h3, fibronectin, laminin, vitronectin, type I and type II collagen. After 1 hour of incubation, the attached cells were quantitatively analyzed with hexosaminidase as in Example 1-2.

The test system of test [4] is HCE cells. The experiment in a line: Inhibition of HCE cell adhesion to βig-h3, fibronectin and laminin at various concentrations of EPDIM. The settings on record: EPDIM 0-1,200 μM, FIG. 10b. The protocol:
as §1
HCE cells were incubated in media containing the synthetic peptide EPDIM (SEQ ID NO:3) at concentrations of 0, 200, 400, 600, 800, 1,000 and 1,200 μM and applied to plates coated with βig-h3, fibronectin and laminin. Following incubation for 1 hour, the attached cells were quantitatively analyzed with hexosaminidase as in Example 1-2.

The test system of test [5] is α3β1 integrin. Put plainly: Function-blocking anti-integrin antibodies on HCE cell adhesion to plates coated with EPDIM or NKDIL. Conditions: plates coated with 100 μM peptide, antibodies 5 μg/ml, FIG. 9b. The protocol: Function-blocking experiments using monoclonal antibodies against various integrin subunits were carried out to examine whether α3β1 integrin, known as a surface receptor of βig-h3, would be involved in the cell adhesion mediated by the synthetic peptides EPDIM (SEQ ID NO:3) and NKDIL (SEQ ID NO:2). HCE was preincubated at 37° C. for 30 mm in the presence of each of the monoclonal antibodies (5 μg/ml) against different types of integrins. The preincubated cells were transferred onto plates precoated with 100 μM EPDIM (SEQ ID NO:3) or 100 μM NKDIL (SEQ ID NO:2) and then incubated further at 37° C. for 1 hour, followed by the quantitative analysis with hexosaminidase substrate as in Example 1-2.
Chain of α3β1 integrin (P26006 33-872 limits assumed): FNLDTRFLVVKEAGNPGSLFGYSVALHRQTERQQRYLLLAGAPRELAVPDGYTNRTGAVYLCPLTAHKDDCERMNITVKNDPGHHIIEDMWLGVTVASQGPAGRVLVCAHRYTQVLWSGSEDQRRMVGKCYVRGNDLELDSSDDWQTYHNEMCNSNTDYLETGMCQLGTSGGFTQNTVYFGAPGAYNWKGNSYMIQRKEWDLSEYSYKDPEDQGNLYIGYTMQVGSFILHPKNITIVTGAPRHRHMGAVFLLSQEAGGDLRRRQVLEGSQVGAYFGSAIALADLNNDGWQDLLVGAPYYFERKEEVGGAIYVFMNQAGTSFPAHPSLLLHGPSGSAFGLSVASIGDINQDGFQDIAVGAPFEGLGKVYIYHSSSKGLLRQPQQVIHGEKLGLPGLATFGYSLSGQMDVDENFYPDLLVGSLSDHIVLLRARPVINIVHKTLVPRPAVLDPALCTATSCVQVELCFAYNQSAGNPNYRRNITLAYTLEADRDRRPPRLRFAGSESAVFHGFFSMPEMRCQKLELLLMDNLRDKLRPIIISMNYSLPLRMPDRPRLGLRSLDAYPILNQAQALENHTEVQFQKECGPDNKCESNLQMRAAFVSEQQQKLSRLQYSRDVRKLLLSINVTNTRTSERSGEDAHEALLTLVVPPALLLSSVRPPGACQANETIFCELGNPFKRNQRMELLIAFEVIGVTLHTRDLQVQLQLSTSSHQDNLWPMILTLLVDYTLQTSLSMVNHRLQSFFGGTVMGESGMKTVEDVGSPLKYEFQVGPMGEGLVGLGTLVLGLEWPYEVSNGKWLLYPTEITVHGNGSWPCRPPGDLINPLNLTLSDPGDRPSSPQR
Chain of α3β1 integrin (P26006 876-1051 limits assumed): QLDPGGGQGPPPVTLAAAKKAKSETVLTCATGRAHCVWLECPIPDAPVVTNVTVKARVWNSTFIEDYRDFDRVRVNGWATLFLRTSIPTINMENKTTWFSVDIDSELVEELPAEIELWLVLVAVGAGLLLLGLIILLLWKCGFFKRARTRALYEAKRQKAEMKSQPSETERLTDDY
Chain of α3β1 integrin (P05556 21-798, further chain): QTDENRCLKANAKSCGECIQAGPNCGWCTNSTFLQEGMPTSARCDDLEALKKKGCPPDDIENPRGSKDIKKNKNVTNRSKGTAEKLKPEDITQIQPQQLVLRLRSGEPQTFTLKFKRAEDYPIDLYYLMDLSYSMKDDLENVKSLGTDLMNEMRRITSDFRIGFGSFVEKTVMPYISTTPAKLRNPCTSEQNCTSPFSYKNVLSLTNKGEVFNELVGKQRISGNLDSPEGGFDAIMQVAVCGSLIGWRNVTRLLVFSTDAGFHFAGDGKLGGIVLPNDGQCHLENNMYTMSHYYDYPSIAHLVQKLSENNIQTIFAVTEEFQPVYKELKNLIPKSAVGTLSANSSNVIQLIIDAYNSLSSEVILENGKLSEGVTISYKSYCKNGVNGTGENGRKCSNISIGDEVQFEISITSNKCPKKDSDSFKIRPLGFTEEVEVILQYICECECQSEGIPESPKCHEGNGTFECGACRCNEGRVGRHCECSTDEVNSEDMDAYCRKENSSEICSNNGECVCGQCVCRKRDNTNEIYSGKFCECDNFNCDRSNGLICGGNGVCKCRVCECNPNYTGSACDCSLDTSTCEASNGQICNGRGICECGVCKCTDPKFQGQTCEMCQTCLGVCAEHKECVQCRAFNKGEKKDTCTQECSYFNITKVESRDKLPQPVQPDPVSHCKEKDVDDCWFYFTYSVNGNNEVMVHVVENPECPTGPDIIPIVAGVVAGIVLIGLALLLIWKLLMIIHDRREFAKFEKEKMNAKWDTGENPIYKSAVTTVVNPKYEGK

In test [6] the test system is HCE cells. The experiment in a line: Cell attachment activity of recombinant βig-h3 fas-1 domain proteins coated on plates (hexosaminidase assay). Conditions: HCE cells on plates coated with the recombinant protein, 37° C. 1 hour, FIG. 2. The protocol:
as §1

The test system of test [7] is HCE cells. Put plainly: Cell attachment activity of substitution mutants of the 4th fas-1 domain of βig-h3. The settings on record: HCE cells on plates coated with the mutant protein, 37° C. 1 hour, FIG. 6. The protocol:
as §1
Examination was made of the cell attachment activity of the mutated proteins wherein the Pro616, Asp617 and Ile618 of βigh3 D-IV were substituted, in combination, with Ser, Ala and Ser, respectively, that is, βigh3 D-IV-sDI, βigh3 D-IV-Pal, βigh3 D-IV-PDs, and βigh3 D-IV-sas. To this end, HCE cells were incubated at 37° C. for 1 hour in well plates coated with the mutant proteins, followed by subjecting the attached cells to the hexosaminidase substrate as in Example 1-2.

Take DEMPI [reference compound]: in test [1], the cell detachment activity entry was “failed to show; also recorded: low cell detachment activity” and the “inhibition of HCE cell adhesion to βig-h3” value is listed as “did not affect cell adhesion”. Further, in test [2], the “ability to mediate cell adhesion” value is recorded as “not active in cell adhesion”.

In the case of EPDIM [synthetic peptide, a.a], in test [1], the cell detachment activity result is given as “very excellent cell detachment effect; also recorded: excellent cell detachment activity” and the “inhibition of HCE cell adhesion to βig-h3” value is given as “significant suppression of the cell attachment activity; also recorded: significantly blocked”. Also, the “ability to mediate cell adhesion” value in test [2] is listed as “capable of mediating cell adhesion in dose-dependent manners; also recorded: mediate cell adhesion in dose-dependent manners”. Moreover, in test [3], the “inhibition of cell adhesion to fibronectin” value is on record as “weakly inhibited”, the “inhibition of cell adhesion to laminin” value is given as “efficiently blocked”, the “inhibition of cell adhesion to type I collagen” value is recorded as “did not affect” and the “inhibition of cell adhesion to type II collagen” value is “did not affect”. For the same molecule, in test [3], the “inhibition of cell adhesion to vitronectin” value is listed as “did not affect” and the “inhibition of cell adhesion to βig-h3” value is “efficiently blocked”. Also, in test [4], the “inhibitory effect on cell adhesion to fibronectin” value is “dose-dependent”, the “inhibitory effect on cell adhesion to laminin” value is recorded as “dose-dependent” and the “inhibitory effect on cell adhesion to βig-h3” value is listed as “dose-dependent”. In test [5], the “α3β1 integrin as receptor in peptide-mediated cell adhesion” value is listed as “revealed to act as a receptor”.

On to KADHH [synthetic peptide, a.a], for which, in test [1], the cell detachment activity entry is given as “relatively very low cell detachment effects” and the “inhibition of HCE cell adhesion to βig-h3” value is recorded as “weak suppression of cell adhesion; also recorded: weakly inhibited”. In addition, the “ability to mediate cell adhesion” value in test [2] is given as “low in activity compared to NKDIL”.

For NKDIL [synthetic peptide, a.a], in test [1], the cell detachment activity entry is “very excellent cell detachment effect; also recorded: excellent cell detachment activity” and the “inhibition of HCE cell adhesion to βig-h3” value is listed as “significant suppression of the cell attachment activity; also recorded: significantly blocked”. In addition, the “ability to mediate cell adhesion” value in test [2] is reported as “capable of mediating cell adhesion in dose-dependent manners; also recorded: mediate cell adhesion in dose-dependent manners”. In test [3], the “inhibition of cell adhesion to fibronectin” value is given as “weakly inhibited”, the “inhibition of cell adhesion to laminin” value is reported as “efficiently blocked”, the “inhibition of cell adhesion to type I collagen” value is “did not affect” and the “inhibition of cell adhesion to type II collagen” value was “did not affect”. Further, in test [3], the “inhibition of cell adhesion to vitronectin” value is listed as “did not affect” and the “inhibition of cell adhesion to βig-h3” value was “efficiently blocked”. In addition, the “α3β1 integrin as receptor in peptide-mediated cell adhesion” value in test [5] is recorded as “revealed to act as a receptor”.

B1: βigh3-D-IV: recombinant His-tagged 4th fas-1 domain of human βig-h3, amino acid residues 501 to 632 (protein)
chain: MGTVMDVLKGDNRFSMLVAAIQSAGLTETLNREGVYTVFAPTNEAFRALPPRERSRLLGDAKELANILKYHIGDEILVSGGIGALVRLKSLQGDKLEVSLKNNVVSVNKEPVAEPDIMATNGVVHVITNVLHHHHHH
B1: in test [6], the “cell attachment and spreading activity” value is on record as “comparable to the activity of wild type βig-h3”.

B2: βigh3 DIV-sas: βigh3 D-IV mutant in which the three amino acids Pro616, Asp617, Ile618 were mutated to Ser, Ala, Ser (protein)
chain: B1 chain with P115S, D116A, I117S
Regarding B2, in test [7], the cell attachment activity entry is listed as “far lower than the control”.

B3: βigh3 D-IV-sDI: βigh3 D-IV mutant having Ser instead of Pro616 (protein)
chain: B1 chain with P115S
B3: in test [7], the cell attachment activity result was “comparable to that of the wild type control”.

B4: βigh3 D-IV-PDs: βigh3 D-IV mutant having Ser instead of Ile618 (protein)
chain: B1 chain with I117S
Regarding B4, in test [7], the cell attachment activity result is recorded as “significantly blocked cell adhesion”.

B5: βigh3 D-IV-Pal: βigh3 D-IV mutant having Ala instead of Asp617 (protein)
chain: B1 chain with D116A
Take B5: in test [7], the cell attachment activity result was “significantly blocked cell adhesion”.

B6: βigh3-D-II: recombinant His-tagged 2nd fas-1 domain of human βig-h3, amino acid residues 242 to 372 (protein)
chain: NIQQIIEIEDTFETLRAAVAASGLNTMLEGNGQYTLLAPTNEAFEKIPSETLNRILGDPEALRDLLNNHILKSAMCAEAIVAGLSVETLEGTTLEVGCSGDMLTINGKAIISNKDILATNGVIHYIDELLIHHHHHH
As for B6, the “cell attachment and spreading activity” value in test [6] is “comparable to the activity of wild type βig-h3”.

B7: βigh3-D-I: recombinant His-tagged 1st fas-1 domain of human βig-h3, amino acid residues 133 to 236 (protein)
chain: EGPGSFTIFAPSNEAWASLPAEVLDSLVSNVNIELLNALRYHMVGRRVLTDELKHGMTLTSMYQNSNIQIHHYPNGIVTVNCARLLKADHHATNGVVHLIDKVIHHHHHH
As for B7, the “cell attachment and spreading activity” value in test [6] is “weak activity”.

B8: βigh3-D-III: recombinant His-tagged 3rd fas-1 domain of human βig-h3, amino acid residues 373 to 501 (protein)
chain: PDSAKTLFELAAESDVSTAIDLFRQAGLGNHLSGSERLTLLAPLNSVFKDGTPPIDAHTRNLLRNHIIKDQLASKYLYHGQTLETLGGKKLRVFVYRNSLCIENSCIAAHDKRGRYGTLFTMDRVLTPPHHHHHH
Consider B8, for which, in test [6], the “cell attachment and spreading activity” value is “almost no activity”.
